Results from patent US9920014B2, “Selective inhibition of bacterial topoisomerase I” (THE FLORIDA INTERNATIONAL BOARD OF TRUSTEES MODESTO A. …, priority 2013, dated 2018).
≈ marks a conversion by molar mass, not a printed value.

Assays:
[1] = molecular target: E. coli DNA topoisomerase I (Escherichia coli, UniProt P06612); assay: Inhibition assay against E. coli DNA topoisomerase I (plasmid relaxation, agarose gel); format: biochemical; details: 6 nM enzyme; for concentration needed to completely inhibit the activities of E. coli DNA topoisomerase I: gel titration (FIG. 3A, 3B); for IC50: supercoiled pBAD-GFPuv, 15 min 37° C., average of at least three determinations, read-out: IC50 ecTopo I
Sequence of E. coli DNA topoisomerase I (P06612 whole entry): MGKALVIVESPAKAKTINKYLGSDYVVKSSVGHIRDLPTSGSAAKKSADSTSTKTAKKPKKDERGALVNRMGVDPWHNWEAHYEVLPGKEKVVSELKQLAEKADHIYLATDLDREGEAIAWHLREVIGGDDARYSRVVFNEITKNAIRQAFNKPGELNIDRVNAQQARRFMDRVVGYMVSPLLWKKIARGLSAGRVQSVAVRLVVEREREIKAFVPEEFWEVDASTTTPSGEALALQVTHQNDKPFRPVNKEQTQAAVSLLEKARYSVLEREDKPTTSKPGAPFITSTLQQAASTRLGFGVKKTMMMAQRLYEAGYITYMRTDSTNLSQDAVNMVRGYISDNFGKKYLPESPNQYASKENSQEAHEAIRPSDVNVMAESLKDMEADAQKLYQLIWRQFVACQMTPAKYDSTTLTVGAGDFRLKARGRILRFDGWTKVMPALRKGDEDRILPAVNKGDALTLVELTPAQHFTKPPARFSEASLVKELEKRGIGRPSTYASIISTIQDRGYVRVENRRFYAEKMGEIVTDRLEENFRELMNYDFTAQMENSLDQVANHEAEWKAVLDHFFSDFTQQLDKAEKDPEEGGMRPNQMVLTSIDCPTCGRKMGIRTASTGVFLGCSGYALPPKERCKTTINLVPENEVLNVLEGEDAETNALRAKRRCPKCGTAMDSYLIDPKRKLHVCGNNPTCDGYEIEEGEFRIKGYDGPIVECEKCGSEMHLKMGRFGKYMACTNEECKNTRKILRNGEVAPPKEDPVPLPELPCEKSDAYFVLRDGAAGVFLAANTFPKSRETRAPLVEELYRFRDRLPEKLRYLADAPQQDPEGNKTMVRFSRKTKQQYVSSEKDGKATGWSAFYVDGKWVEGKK
Experimental: Inhibition Assays Against E. coli DNA Topoisomerase I:
Inhibition assays were used to determine the activities of the newly synthesized compounds against E. coli DNA topoisomerase I. The reaction mixture (30 μl) contained 20 mM Tris-HCl at pH 7.9, 50 mM KAc, 10 mM Mg(Ac)2, 1 mM DTT, 1 μg/mL BSA, 150 ng of the supercoiled plasmid pBAD-GFPuv, 6 nM of E. coli topoisomerase I, and one of the compounds at a specified concentration that ranges from 0.5 to 45 μM. All components were assembled on ice and incubated for 15 min at 37° C. After the incubation, the reactions were terminated by extraction with an equal volume of phenol. The topological state of the DNA samples was analyzed with 1% agarose gel electrophoresis in 1×TAE buffer, pH 7.8. Following electrophoresis, the agarose gel was stained with Ethidium Bromide, destained, and photographed under UV light. The intensity of DNA topoisomers was determined using KODAK 1D Image Analysis Software. The percentage of (−) supercoiled DNA was calculated from a comparison of the intensity of the (−) supercoiled band with the total intensity of all DNA topoisomers. The IC50 was calculated as the amount of the drug for which 50% of the DNA was still in a (−) supercoiled state.

[2] = test system: Enterococcus faecalis ATCC 29212; assay: MIC by microbroth dilution, E. faecalis 29212; format: cell-based; details: for activity against E. faecalis 29212 (in words): comment on Table 4; for MIC S6 = E. faecalis 29212 / MIC: microbroth dilution, 24 h 37° C.; for MIC: Enterococcus faecalis, ATCC29212, read-out: MIC S6 = E. faecalis 29212
Experimental: (§1) Minimum Inhibitory Concentration (MIC) Determination:
(§2) Bacteria used in this study were Staphylococcus aureus ATCC 29213, Escherichia coli ATCC 25922, Escherichia coli K12, Staphylococcus aureus ATCC 33591, Pseudomonas aeruginosa ATCC 27853, and Enterococcus faecalis ATCC 29212. All compounds were tested by the microbroth dilution method following Clinical and Laboratory Standards Institute guidelines. Briefly, Mueller-Hinton broth (Difco Laboratories, Becton Dickinson) was inoculated with each organism and incubated at 37° C. with shaking to establish logarithmic growth. Following incubation, each culture was pelleted by centrifugation (3,500×g for 5 min) and resuspended in 0.85% sterile saline solution to an optical density at 625 nm of 0.1. Samples were tested in triplicate using 96 well microplates (Corning Costar Corp. Cambridge, Mass.), yielding final bacterial concentrations of 5×10^5 CFU/mL, and incubated for 24 h at 37° C. Following incubation, optical densities of each well were determined with a μQuant microplate spectrophotometer (BioTek Instruments, Inc., Winooski, Vt.) at 625 nm.

Escherichia coli K12 = assay: MIC by microbroth dilution, E. coli K12; format: cell-based; details: for MIC S5 = E. coli K 12: 24 h 37° C.; for MIC: Escherichia coli, K12, 24 h 37° C., read-out: MIC S5 = E. coli K 12
Experimental: as §1, §2

[3] = molecular target: T1, human DNA topoisomerase I (Homo sapiens, UniProt P11387); assay: Inhibition assay against human DNA topoisomerase I (plasmid relaxation, agarose gel); format: biochemical; details: for supercoiled DNA template prevented from relaxation by human DNA topoisomerase I: 50 μM compound; for IC50: 2 units enzyme, supercoiled pBAD-GFPuv, 30 min 37° C., read-out: IC50 hTopo I
T1 sequence (P11387 1-765): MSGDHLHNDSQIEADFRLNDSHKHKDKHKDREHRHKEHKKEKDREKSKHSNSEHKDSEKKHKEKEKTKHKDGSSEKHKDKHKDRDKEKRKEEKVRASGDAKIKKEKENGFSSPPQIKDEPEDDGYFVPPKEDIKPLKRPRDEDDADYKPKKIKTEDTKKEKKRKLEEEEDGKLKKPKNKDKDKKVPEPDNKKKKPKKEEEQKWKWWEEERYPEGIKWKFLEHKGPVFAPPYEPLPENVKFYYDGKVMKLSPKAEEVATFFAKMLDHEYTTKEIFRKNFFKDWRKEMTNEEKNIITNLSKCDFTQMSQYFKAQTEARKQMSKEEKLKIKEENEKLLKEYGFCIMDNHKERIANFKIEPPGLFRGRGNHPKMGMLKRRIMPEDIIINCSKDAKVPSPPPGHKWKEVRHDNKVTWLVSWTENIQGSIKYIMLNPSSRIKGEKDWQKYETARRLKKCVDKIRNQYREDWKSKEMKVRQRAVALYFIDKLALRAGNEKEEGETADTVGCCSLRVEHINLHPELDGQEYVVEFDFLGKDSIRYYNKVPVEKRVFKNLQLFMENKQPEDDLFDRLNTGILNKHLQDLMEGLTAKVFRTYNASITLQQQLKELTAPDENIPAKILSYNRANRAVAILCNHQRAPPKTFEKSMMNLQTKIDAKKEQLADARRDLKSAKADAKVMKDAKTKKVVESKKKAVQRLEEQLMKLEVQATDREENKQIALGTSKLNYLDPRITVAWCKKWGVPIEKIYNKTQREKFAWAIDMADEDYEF
Experimental: Inhibition Assays Against Human DNA Topoisomerase I:
The inhibition assays were used to determine the activities of the newly synthesized compounds against Human DNA topoisomerase I. The reaction mixture (25 μl) contained 20 mM Tris-HCl at pH 7.9, 50 mM KAc, 10 mM Mg(Ac)2, 1 mM DTT, 1 μg/ml BSA, 250 ng of the supercoiled plasmid pBAD-GFPuv, 2 units of Human DNA topoisomerase I, and one of the compounds at a final concentration that ranges from 5 to 50 μM. All components were assembled on ice and incubated for 30 minutes at 37° C. After the incubation, the reactions were terminated by extraction with an equal volume of phenol. The topological state of the DNA samples was analyzed with 1% agarose gel electrophoresis in 1×TAE buffer, pH 7.8. Following electrophoresis, the agarose gel was stained with Ethidium Bromide, destained, and photographed under UV light. The intensity of DNA topoisomers was determined using KODAK 1D Image Analysis Software. The percentage of (−) supercoiled DNA was calculated from a comparison of the intensity of the (−) supercoiled band with the total intensity of all DNA topoisomers. The IC50 was calculated as the amount of the drug for which 50% of the DNA was in a (−) supercoiled state.

| Structure (SMILES) | concentration needed to completely inhibit the activities of E. coli DNA topoisomerase I [1] | IC50 [1] [µM] | activity against E. faecalis 29212 (in words) [2] | MIC S6 = E. faecalis 29212 [2] [µg/mL] | MIC S5 = E. coli K 12 (Escherichia coli K12) [µg/mL] | supercoiled DNA template prevented from relaxation by human DNA topoisomerase I [3] | IC50 [3] [µM] | MIC (Escherichia coli K12) [µg/mL] | MIC [2] [µg/mL] |
| --- | --- | --- | --- | --- | --- | --- | --- | --- | --- |
| CN1CCN(c2ccc3[nH]c(-c4ccc5[nH]c(-c6ccc(O)cc6)nc5c4)nc3c2)CC1 [Hoechst 33258, reference compound] | approximately 20 μM | 19.5 ± 1.32 | not good inhibitors | 16 to 32 | 16 (≈ 37.7 µM) | about 70% | 22.9 ± 1.55 | – | – |
| CCOc1ccc(-c2nc3ccc(-c4nc5ccc(N6CCN(C)CC6)cc5[nH]4)cc3[nH]2)cc1 [Hoechst 33342, reference compound] | – | 29.8 ± 2.75 | not good inhibitors | 16 to 32 | 8 (≈ 17.7 µM) | – | > 50 | – | – |
| C#CCOCCCCOc1ccc(-c2nc3ccc(-c4nc5ccc(N6CCN(C)CC6)cc5[nH]4)cc3[nH]2)cc1 [DPA 154, 6-(4-methylpiperazin-1-yl)-2′-(4-(4-(prop-2-ynyloxy)butoxy)phenyl)-1H,3′H-2,5′-bibenzo[d]imidazole] | – | 6.63 ± 0.47 | markedly improved activity | – | – | – | > 50 | 8 to 16 (≈ 15 to 29.9 µM) | – |
| C#CCOc1ccc(-c2nc3ccc(-c4nc5ccc(N6CCN(C)CC6)cc5[nH]4)cc3[nH]2)cc1 [DPA 151, 6-(4-methylpiperazin-1-yl)-2′-(4-(prop-2-ynyloxy)phenyl)-1H,3′H-2,5′-bibenzo[d]imidazole] | approximately 5 μM | 5.5 ± 0.5 | – | – | – | about 70% | 25.4 ± 2.2 | 8 (≈ 17.3 µM) | 16 to 32 (≈ 34.6 to 69.2 µM) |
| C#CCCCCCCCCCOc1ccc(-c2nc3ccc(-c4nc5ccc(N6CCN(C)CC6)cc5[nH]4)cc3[nH]2)cc1 [DPA 153, 6-(4-methylpiperazin-1-yl)-2′-(4-(undec-10-ynyloxy)phenyl)-1H,3′H-2,5′-bibenzo[d]imidazole] | – | 2.47 ± 0.06 | – | – | – | – | > 50 | 8 to 16 (≈ 13.9 to 27.8 µM) | 16 to 32 (≈ 27.8 to 55.7 µM) |
| C#CCCCCOc1ccc(-c2nc3ccc(-c4nc5ccc(N6CCN(C)CC6)cc5[nH]4)cc3[nH]2)cc1 [DPA 152, 2′-(4-(hex-5-ynyloxy)phenyl)-6-(4-methylpiperazin-1-yl)-1H,3′H-2,5′-bibenzo[d]imidazole] | – | 4.57 ± 0.81 | markedly improved activity | – | – | – | > 50 | 8 to 16 (≈ 15.9 to 31.7 µM) | 4 (≈ 7.93 µM) |
